Like-named read-outs stand apart in the source and are kept apart here.
What was measured:
DENV-2 16681 strain = assay: DENV-2 antiviral assay (eGFP fluorescence, Vero cells); assay type: cell-based, Dengue virus; settings: DENV-2 16681 eGFP, MOI 0.5, 3 days
Procedure: The antiviral activity of all the compounds of the invention was tested against the DENV-2 16681 strain which was labeled with enhanced green fluorescent protein (eGPF; Table 1). The culture medium consists of minimal essential medium supplemented with 2% of heat-inactivated fetal calf serum, 0.04% gentamycin (50 mg/mL) and 2 mM of L-glutamine. Vero cells, obtained from ECACC, were suspended in culture medium and 25 μL was added to 384-well plates (2500 cells/well), which already contain the antiviral compounds. Typically, these plates contain a 5-fold serial dilution of 9 dilution steps of the test compound at 200 times the final concentration in 100% DMSO (200 nL). […] Finally, each plate contains wells which are assigned as virus controls (containing cells and virus in the absence of compound), cell controls (containing cells in the absence of virus and compound) and medium controls (containing medium in the absence of cells, virus and compounds). To the wells assigned as medium control, 25 μL of culture medium was added instead of Vero cells. Once the cells were added to the plates, the plates were incubated for 30 minutes at room temperature to allow the cells to distribute evenly within the wells. Next, the plates were incubated in a fully humidified incubator (37° C., 5% CO2) until the next day. Then, DENV-2 strain 16681, labeled with eGFP, was added at a multiplicity of infection (MOI) of 0.5. Therefore, 15 μL of virus suspension was added to all the wells containing test compound and to the wells assigned as virus control. In parallel, 15 μL of culture medium was added to the medium and cell controls. Next, the plates were incubated for 3 days in a fully humidified incubator (37° C., 5% CO2). At the day of the read out, the eGFP fluorescence was measured using an automated fluorescence microscope at 488 nm (blue laser). Using an in-house LIMS system, inhibition dose response curves for each compound were calculated and the half maximal effective concentration (EC50) was determined. Therefore, the percent inhibition (I) for every test concentration is calculated using the following formula: I=100*(ST−SCC)/(SVC−SCC); ST, SCC and SVC are the amount of eGFP signal in the test compound, cell control and virus control wells, respectively. The EC50 represents the concentration of a compound at which the virus replication is inhibited with 50%, as measured by a 50% reduction of the eGFP fluorescent intensity compared to the virus control. The EC50 is calculated using linear interpolation.

DENV-3 strain H87 = assay: Tetravalent RT-qPCR assay Protocol A, serotype 3; assay type: cell-based; settings: Dengue virus, DENV3, 72 h, RT-qPCR serotype 3 H87, Vero cells, day 3
Procedure: (§1) The antiviral activity of the compounds of the invention was tested against DENV-1 strain TC974#666 (NCPV; Table 6), DENV-2 strain 16681 (Table 7), DENV-3 strain H87 (NCPV; Table 8) and DENV-4 strains H241 (NCPV; Table 9A) and SG/06K2270DK1/2005 (Eden; Table 9B) in a RT-qPCR assay. Therefore, Vero cells were infected with either DENV-1, or -2, or -3, or -4 in the presence or absence of test compounds. At day 3 post-infection, the cells were lysed and cell lysates were used to prepare cDNA of both a viral target (the 3′UTR of DENV; Table 2) and a cellular reference gene (β-actin, Table 2). Subsequently, a duplex real time PCR was performed on a Lightcycler480 instrument. The generated Cp value is inversely proportional to the amount of RNA expression of these targets. Inhibition of DENV replication by test compound results in a shift of Cp's for the 3′UTR gene. On the other hand, if a test compound is toxic to the cells, a similar effect on β-actin expression will be observed. The comparative ΔΔCp method is used to calculate EC50, which is based on the relative gene expression of the target gene (3′UTR) normalized with the cellular housekeeping gene (β-actin).
(§2) The culture medium consisted of minimal essential medium supplemented with 2% of heat-inactivated fetal calf serum, 0.04% gentamycin (50 mg/mL) and 2 mM of L-glutamine. Vero cells, obtained from ECACC, were suspended in culture medium and 75 μL/well was added in 96-well plates (10000 cells/well), which already contain the antiviral compounds. […] In addition, each plate contains wells which are assigned as virus controls (containing cells and virus in the absence of compound) and cell controls (containing cells in the absence of virus and compound). Once the cells were added in the plates, the plates were incubated in a fully humidified incubator (37° C., 5% CO2) until the next day. Dengue viruses serotype-1, 2, 3 and 4 were diluted in order to obtain a Cp of ˜22-24 in the assay. Therefore, 25 μL of virus suspension was added to all the wells containing test compound and to the wells assigned as virus control. In parallel, 25 μL of culture medium was added to the cell controls. Next, the plates were incubated for 3 days in a fully humidified incubator (37° C., 5% CO2). After 3 days, the supernatant was removed from the wells and the cells were washed twice with ice-cold PBS (˜100 μL). The cell pellets within the 96-well plates were stored at −80° C. for at least 1 day. Next, RNA was extracted using the Cells-to-CT™ lysis kit, according to the manufacturer's guideline (Life Technologies). The cell lysates can be stored at −80° C. or immediately used in the reverse transcription step.
(§3) In preparation of the reverse transcription step, mix A (table 3A) was prepared and 7.57 μL/well was dispensed in a 96-well plate. After addition of 5 μL of the cell lysates, a five minute denaturation step at 75° C. was performed (table 3B). Afterwards, 7.43 μL of mix B was added (table 3C) and the reverse transcription step was initiated (table 3D) to generate cDNA.
(§4) Finally, a RT-qPCR mix was prepared, mix C (table 4A), and 22.02 μL/well was dispensed in 96-well LightCycler qPCR plates to which 3 μL of cDNA was added and the qPCR was performed according to the conditions in table 4B on a LightCycler 480.
(§5) Using the LightCycler software and an in-house LIMS system, dose response curves for each compound were calculated and the half maximal effective concentration (EC50) and the half maximal cytotoxic concentration (CC50) were determined.

Vero cells [1] = settings: African green monkey
DENV-4 strain H241 = assay: Tetravalent RT-qPCR assay Protocol A, serotype 4 H241; assay type: cell-based; settings: Dengue virus, DENV4, Vero, 72 h
Procedure: as §1, §2, §3, §4, §5

in vitro = assay type: cell-based; settings: African green monkey, CC50
Procedure: as §1, §2, §5

Vero cells [2] = assay: in vitro; assay type: cell-based; settings: African green monkey, 3 days
Procedure: as §1, §2, §5

DENV-1 strain TC974#666 = assay: Tetravalent RT-qPCR assay Protocol A, serotype 1; assay type: cell-based; settings: Dengue virus, DENV1, 72 h, RT-qPCR serotype 1 TC974#666, Vero cells, day 3
Procedure: as §1, §2, §3, §4, §5

DENV-2 strain 16681 = assay: Tetravalent RT-qPCR assay Protocol A, serotype 2; assay type: cell-based; settings: Dengue virus, DENV2, 72 h; Protocol A, RT-qPCR serotype 2 16681, Vero cells, day 3; read-out: EC50
Procedure: as §1, §2, §3, §4, §5

COc1cc(NC(C(=O)c2c[nH]c3cc(OC)c(OC(F)(F)F)cc23)c2ccc(Cl)cc2OC)cc(S(C)(=O)=O)c1 (single isomer, unassigned) [Compound 10A, 2-(4-chloro-2-methoxyphenyl)-2-((3-methoxy-5-(methylsulfonyl)phenyl)amino)-1-(6-methoxy-5-(trifluoromethoxy)-1H-indol-3-yl)ethanone]
EC50 (DENV-2 16681 strain): 0.12 nM
EC50 (DENV-3 strain H87): 3.7 nM
CC50 (Vero cells [1]): 2600 nM
EC50 (DENV-4 strain H241): 11 nM
CC50 at 3 days (in vitro): 1600 nM
CC50 (Vero cells [2]): 1000 nM
EC50 (DENV-1 strain TC974#666): 0.27 nM
EC50 (DENV-2 strain 16681): 0.057 nM

Source: patent US12172959B2, “Mono- or di-substituted indole derivatives as dengue viral replication inhibitors” (priority 2015, dated 2024)
